Measured values reported in paper PMC3242765, “Inhibitors of Alphavirus Entry and Replication Identified with a Stable Chikungunya Replicon Cell Line and Virus-Based Assays” (PLoS ONE, 2011).
“And” between values parts separate entries of the source, which are not always exact repeats. Identical values can stand only once. Counter-ions that a name gives are not always drawn.

Tests used:
CHIKV replicon = test: microbe, parasite or virus in culture; assay type: cell-based, Chikungunya virus (CHIKV)

Molecule | CHIKV replicon % left (CHIKV replicon) | SFV replication % left (surviving fraction, remaining percentage of SFV replication) (SFV-Rluc)
CCCc1cc(=O)[nH]c(=S)[nH]1 [6-Propyl-2-thiouracil] | 100.5% | 81.0%
CC(C)[N+](C)(CCOC(=O)C1c2ccccc2Oc2ccccc21)C(C)C [Propantheline bromide] | 104.2% | 77.0%
Cc1cc(C)nc(NS(=O)(=O)c2ccc(N)cc2)n1 [Sulfamethazine] | 100.5% | 91.7%
Oc1ccc(/C=C/c2cc(O)cc(O)c2)cc1 [Resveratrol] | 79.8% | 103.4%
Cc1ccc(C(=O)NS(=O)(=O)c2ccc(N)cc2)cc1C [N-Sulfanilyl-3,4-xylamide] | 100.7% | 72.0%
CCOc1ccc(NC(C)=O)cc1 [Phenacetin] | 100.8% and 94.3% | 71.8% and 80.6%
Oc1ccc(O)cc1 [Hydroquinone] | 72.9% | 16.9%
Oc1cccc(O)c1 [Resorcinol] | 102.9% | 67.1%
CN(C)CC[C@@H](c1ccc(Br)cc1)c1ccccn1 [Dexbrompheniramine maleate] | 100.4% | 69.6%
Saccharin sodium | 81.5% | 105.0%
CC(C)(C)NCC(O)COc1cccc2c1CCC(=O)N2 (stereo not drawn) [Carteolol hydrochloride] | 78.1% | 67.2%
N[C@@H](Cc1ccc(O)c(O)c1)C(=O)O.N[C@@H](Cc1ccc(O)c(O)c1)C(=O)O | 54.8% | 43.6%
CC(C(=O)[O-])c1cccc(Oc2ccccc2)c1.CC(C(=O)[O-])c1cccc(Oc2ccccc2)c1.[Ca+2] (stereo not drawn) [Fenoprofen calcium salt] | 78.3% | 87.6%
COc1ccc2ccc(=O)oc2c1O [Daphnetin-7-methylether] | 89.9% | 105.6%
C[C@@H]1O[C@@H](Oc2c(-c3ccc(O)c(O)c3)oc3cc(O)cc(O)c3c2=O)[C@H](O)[C@H](O)[C@H]1O.O.O [Quercitrin dihydrate] | 45.2% | 11.4%
Cc1cccc(Nc2ccccc2C(=O)O)c1C [Mefenamic acid] | 99.4% | 103.5%
CCN(CC)CCOC(=O)c1ccc(N)cc1 [Procaine hydrochloride] | 84.3% | 105.4%
Cc1ncc([N+](=O)[O-])n1CCO [Metronidazole] | 89.2% | 69.2%
O=C1Nc2ccc(Cl)cc2C(c2ccccc2)=NC1O (stereo not drawn) [Oxazepam] | 80.3% | 79.1%
COc1cc2ccc(=O)oc2cc1O [Scopoletin] | 95.4% | 81.9%
O=C(O)Cc1ccc(O)cc1 [4-Hydroxyphenylacetic acid] | 87.2% | 103.6%
COc1cc2ccc(=O)oc2c(O)c1O [Fraxetin] | 95.4% | 103.6%
CCCNc1ccc(C(=O)OCC(O)CN(C)C)cc1 (stereo not drawn) [Cornecaine] | 80.5% | 77.3%
COc1cc2ccc(=O)oc2c(O)c1OC [Fraxidin] | 104.3% | 77.8%
CN1CCN(CCCN2c3ccccc3Sc3ccc(Cl)cc32)CC1 [Prochlorperazine] | 71.9% | 51.4%
CN1CCCCC1CCN1c2ccccc2Sc2ccc([S+](C)[O-])cc21 (stereo not drawn) [Mesoridazine besylate] | 100.5% | 93.8%

Molecule | CHIKV replicon % left (CHIKV replicon) | SFV replication % left (surviving fraction, remaining percentage of SFV replication) (SFV-Rluc)
O=C(O)/C=C/c1ccccc1O [o-Coumaric acid] | 98.6% | 77.6%
COc1ccccc1-c1cc(=O)c2ccc3ccccc3c2o1 [2'-Methoxy-a-naphthoflavone] | 81.0% | 45.8%
Cc1nnc2n1-c1ccc(Cl)cc1C(c1ccccc1Cl)=NC2 [Triazolam] | 40.1% | 76.5%
Oc1ccccc1O [Catechol] | 77.7% | 58.4%
Oc1cc(O)c2c(c1)OC(c1ccc(O)c(O)c1)C(O)C2O (stereo not drawn) [Leucocyanidin] | 84.1% | 136.3%
COc1ccc(CN(CCN(C)C)c2ccccn2)cc1 [Pyrilamine maleate] | 85.4% | 73.7%
COc1ccc2cc([C@H](C)C(=O)O)ccc2c1 [Naproxen] | 89.2% | 92.7%
CCCCNC(=O)NS(=O)(=O)c1ccc(N)cc1 [1-Butyl-3-sulfanilylurea [carbutamide]] | 67.5% | 83.9%
CCN1C(=O)CC(=O)N(CC)C1=S | 89.2% | 75.7%
Nc1nc(=O)c2nc(CNc3ccc(C(=O)N[C@@H](CCC(=O)O)C(=O)O)cc3)cnc2[nH]1 [Folic acid] | 78.1% | 100.0%
CCNCC(O)c1cccc(O)c1 (stereo not drawn) [Etilefrin] | 87.1% | 116.8%
O=c1c(O)c(-c2ccc(O)cc2)oc2cc(O)cc(O)c12 [Kaempferol] | 11.5% | 2.9%
CC(CN1c2ccccc2Sc2ccccc21)[N+](C)(C)CCO (stereo not drawn) [N-Hydroxyethylpromethazine chloride] | 85.9% | 102.2%
Oc1ccc(C(O)CNCCCCCCNCC(O)c2ccc(O)c(O)c2)cc1O (stereo not drawn) [Hexoprenaline] | 79.1% | 124.9%
CC(C)NCC(O)COc1cccc2ccccc12 (stereo not drawn) [Propranolol hydrochloride] | 105.4% | 74.0%
O=C(O)c1cc(O)cc(O)c1 [3,5-Dihydroxybenzoic acid] | 87.8% | 6.9%
O=C1O[C@H]([C@@H](O)CO)C(O)=C1O [L-ascorbic acid] | 106.1% | 81.4%
Cc1c(C(C)C)c(=O)n(-c2ccccc2)n1C [Propyphenazone] | 81.1% | 50.9%
Cc1ccc(C(C)C)c(O)c1 [Thymol] | 71.1% | 42.0%
CC(C)NCC(O)c1ccc2ccccc2c1 (stereo not drawn) [Pronethalol] | 29.9% | 62.9%
CN(C)CC/C=C1/c2ccccc2Sc2ccc(Cl)cc21 [Chlorprothixene hydrochloride] | 78.2% | 90.3%
COc1ccccc1OCC(O)CO (stereo not drawn) [Guaifenesin] | 82.7% | 124.5%
CN(C)CCCN1c2ccccc2Sc2cccnc21.Cl [Prothipendyl hydrochloride] | 11.2% | 7.4%
CCC1(c2ccccc2)C(=O)NCNC1=O [Primidone] | 41.6% | 127.1%
O=c1oc2cc(O)ccc2cc1-c1nc2ccccc2o1 [3-(2-Benzoxazolyl)umbelliferone] | 61.8% | 21.0%
